Data taken from patent US10265331B2, “Prevention or treatment agent for hepatic fibrosis” (priority 2012, dated 2019).

How the values were obtained:
[1] = system: chronic hepatitis C model mouse (Cre/loxP/HCV-MxCre Tg mouse); assay: Treatment effect on hepatic fibrosis by histological staining of liver of model mouse; assay type: in vivo
Experimental: The expression of Cre in the liver of these mice was induced by intraperitoneal injection of polyinosinic-polycytidylic acid [Poly(I:C)] (purchased from GE Healthcare UK Ltd. (Buckinghamshire, England)). That is, 300 μL of poly(I:C) solution (1 mg/mL phosphate buffered saline [PBS]) was intraperitoneally injected, after lapse of 2 months from birth, […] 3 times at 48 hr intervals. HCV gene expression can be induced in almost all hepatocytes by performing this poly(I:C) administration operation once.
A CBP/β-catenin inhibitor was intraperitoneally administered to the CN2-29^(+/−)/MxCre^(+/−) mouse obtained in Example 1, and whether the CBP/β-catenin inhibitor has a treatment effect on hepatic fibrosis was examined by histological staining of the hepatic tissues collected from the model mouse.
A CBP/β-catenin inhibitor was dissolved in commercially available PBS (pH 7.6), and the pH was adjusted again to 7.6 with an aqueous sodium hydroxide solution to give a 40 mg/ml CBP/β-catenin inhibitor solution. This solution (250 μl) was filled in an osmotic pressure pump (ALZET mini-osmotic pump model 2006) and embedded subcutaneously in the back of mouse, whereby a CBP/β-catenin inhibitor was administered at 0.15 μl/hr for 42 days in a sustained manner. For the control group, commercially available PBS (pH7.6) was similarly filled in an osmotic pressure pump and administered as a vehicle by embedding same subcutaneously in the back of mouse.
Autopsy was performed on day 42 from the administration of the CBP/β-catenin inhibitory compound of (1), the liver was removed and histologically searched.
As for staining, the whole image of the tissue was stained and observed by hematoxylin-eosin staining (HE staining), and fiber was stained and observed by silver staining and Azan staining.
A tissue sample was fixed with 4% para-formaldehyde in PBS, embedded in paraffin and sliced (thickness 4 μm). The obtained section was subjected to hematoxylin-eosin staining (HE), silver staining and Azan staining.
Hematoxylin-eosin staining was performed according to the method described in a handbook of histopathological staining (Kiyoyuki Takahashi, Igaku-Shoin).
Silver staining was performed according to the method described in a handbook of histopathological staining (Kiyoyuki Takahashi, Igaku-Shoin).
Azan staining was performed according to the method described in a handbook of histopathological staining (Kiyoyuki Takahashi, Igaku-Shoin).

CBP/β-catenin = CBP/β-catenin (Homo sapiens, UniProt Q92793); settings: reporter assay of WO 2009/148192; cited from earlier work
CBP/β-catenin, sequence (Q92793 whole entry): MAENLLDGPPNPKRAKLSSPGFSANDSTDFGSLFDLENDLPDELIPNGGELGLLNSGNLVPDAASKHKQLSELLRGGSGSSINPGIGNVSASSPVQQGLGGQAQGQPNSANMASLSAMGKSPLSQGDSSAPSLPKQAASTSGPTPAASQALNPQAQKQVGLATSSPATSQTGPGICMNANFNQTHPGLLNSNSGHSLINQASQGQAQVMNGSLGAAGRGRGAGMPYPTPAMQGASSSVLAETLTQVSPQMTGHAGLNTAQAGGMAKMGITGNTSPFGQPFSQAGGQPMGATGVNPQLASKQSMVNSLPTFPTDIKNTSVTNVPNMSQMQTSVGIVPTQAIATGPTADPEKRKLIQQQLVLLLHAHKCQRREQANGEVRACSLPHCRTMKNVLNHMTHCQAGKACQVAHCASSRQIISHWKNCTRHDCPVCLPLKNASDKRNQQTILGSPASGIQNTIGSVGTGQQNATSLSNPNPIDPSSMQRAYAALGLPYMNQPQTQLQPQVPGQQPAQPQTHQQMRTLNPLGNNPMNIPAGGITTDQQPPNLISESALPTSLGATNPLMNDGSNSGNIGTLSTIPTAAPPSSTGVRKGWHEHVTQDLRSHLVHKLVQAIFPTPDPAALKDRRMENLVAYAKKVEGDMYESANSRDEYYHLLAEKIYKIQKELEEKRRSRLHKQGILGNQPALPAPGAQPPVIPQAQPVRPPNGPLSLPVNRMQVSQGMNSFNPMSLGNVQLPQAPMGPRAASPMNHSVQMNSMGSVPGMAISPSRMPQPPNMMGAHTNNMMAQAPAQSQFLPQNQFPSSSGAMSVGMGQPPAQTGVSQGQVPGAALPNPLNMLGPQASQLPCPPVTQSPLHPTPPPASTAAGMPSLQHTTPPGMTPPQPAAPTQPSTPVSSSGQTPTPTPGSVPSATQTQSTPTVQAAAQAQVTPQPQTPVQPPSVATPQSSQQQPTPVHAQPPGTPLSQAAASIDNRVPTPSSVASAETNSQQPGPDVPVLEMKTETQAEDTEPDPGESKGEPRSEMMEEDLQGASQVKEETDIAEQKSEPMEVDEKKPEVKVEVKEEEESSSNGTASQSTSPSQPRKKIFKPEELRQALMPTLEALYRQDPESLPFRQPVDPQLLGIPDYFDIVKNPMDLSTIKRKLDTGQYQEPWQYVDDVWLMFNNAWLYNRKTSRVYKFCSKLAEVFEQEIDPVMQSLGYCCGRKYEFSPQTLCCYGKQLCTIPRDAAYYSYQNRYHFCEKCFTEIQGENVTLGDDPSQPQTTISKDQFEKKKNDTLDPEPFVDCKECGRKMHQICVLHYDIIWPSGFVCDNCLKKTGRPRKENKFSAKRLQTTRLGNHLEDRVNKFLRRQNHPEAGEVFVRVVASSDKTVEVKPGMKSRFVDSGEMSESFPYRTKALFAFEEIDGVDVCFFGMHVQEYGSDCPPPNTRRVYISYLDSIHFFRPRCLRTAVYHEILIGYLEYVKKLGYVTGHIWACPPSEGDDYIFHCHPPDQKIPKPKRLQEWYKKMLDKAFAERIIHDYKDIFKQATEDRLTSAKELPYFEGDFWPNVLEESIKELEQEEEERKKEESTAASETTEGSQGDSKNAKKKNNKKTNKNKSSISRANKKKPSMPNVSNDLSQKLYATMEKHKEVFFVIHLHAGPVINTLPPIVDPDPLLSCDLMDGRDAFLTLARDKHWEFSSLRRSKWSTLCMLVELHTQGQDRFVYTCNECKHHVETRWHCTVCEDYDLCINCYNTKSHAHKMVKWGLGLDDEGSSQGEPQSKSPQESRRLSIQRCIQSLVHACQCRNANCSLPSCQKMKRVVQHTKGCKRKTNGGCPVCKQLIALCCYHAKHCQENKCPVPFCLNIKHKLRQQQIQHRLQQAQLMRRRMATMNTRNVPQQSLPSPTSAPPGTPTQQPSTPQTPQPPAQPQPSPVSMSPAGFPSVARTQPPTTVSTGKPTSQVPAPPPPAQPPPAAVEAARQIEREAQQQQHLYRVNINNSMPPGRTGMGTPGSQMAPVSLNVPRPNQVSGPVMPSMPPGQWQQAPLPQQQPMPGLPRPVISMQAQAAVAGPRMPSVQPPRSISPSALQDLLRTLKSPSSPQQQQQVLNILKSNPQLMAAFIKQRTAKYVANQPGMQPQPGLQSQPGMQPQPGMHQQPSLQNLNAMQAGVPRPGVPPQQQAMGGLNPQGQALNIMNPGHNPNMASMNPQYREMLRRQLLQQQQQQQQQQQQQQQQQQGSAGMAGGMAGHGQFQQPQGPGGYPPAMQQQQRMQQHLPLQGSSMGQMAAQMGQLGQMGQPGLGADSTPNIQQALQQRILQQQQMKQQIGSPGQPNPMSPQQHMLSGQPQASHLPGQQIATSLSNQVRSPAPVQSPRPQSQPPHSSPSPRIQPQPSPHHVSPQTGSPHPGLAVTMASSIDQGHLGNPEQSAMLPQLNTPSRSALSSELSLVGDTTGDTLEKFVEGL

SMILES: C[C@H]1C2N(C(=O)CN(C)N2C(=O)NCc2ccccc2)[C@@H](Cc2ccc(OP(=O)(O)O)cc2)C(=O)N1Cc1cccc2cccnc12 (stereo partly drawn) [CBP/β-catenin inhibitory compound, 4-(((6S,9S)-1-(benzylcarbamoyl)-2,9-dimethyl-4,7-dioxo-8-(quinolin-8-ylmethyl)octahydro-1H-pyrazino[2,1-c][1,2,4]triazin-6-yl)methyl)phenyl dihydrogen phosphate]
- hepatic lobule structure (defibrosing action) ([1]; CN2-29(+/-)/MxCre(+/-) mouse, 40 mg/ml solution by subcutaneous osmotic pump, 0.15 μl/hr for 42 days, HE, silver and Azan staining (FIG. 2-4)): improved hepatic lobule structure
- hepatocyte cord structure of liver tissue, hematoxylin-eosin staining ([1]; administration for 42 days, FIG. 2): normalized to take a cord-like form
- staining of reticular fiber, silver staining ([1]; administration for 42 days, FIG. 3): weakened and normalized
- staining of collagenous fibers, Azan staining ([1]; administration for 42 days, FIG. 4): normalized
- CBP/β-catenin inhibitory action (CBP/β-catenin): confirmed
